Results as given in article PMC10762035, “Molecular basis of human trace amine-associated receptor 1 activation” (Nature Communications, 2024).
Where a chain is given by its changes, count along the chain named. Several values for one entry are separate records, joined by “and”; a condition that tells them apart may be missing. Equal values may be shown once.

Columns and labels:
Format in all cases: cell-based
hTA1 V184P = target: T1, hTA1 V184P (Homo sapiens, UniProt Q96RJ0, V184P); experiment: GloSensor cAMP accumulation assay, V184P mutant; conditions: for cAMP accumulation response, single replicate values (source data, Supplementary Figure 5): hTA1 V184P (N=2), log[Compound]
T1 construct: expressed in transfected cells; host or cells: HEK293T
T1 sequence (Q96RJ0 1-339 V184P): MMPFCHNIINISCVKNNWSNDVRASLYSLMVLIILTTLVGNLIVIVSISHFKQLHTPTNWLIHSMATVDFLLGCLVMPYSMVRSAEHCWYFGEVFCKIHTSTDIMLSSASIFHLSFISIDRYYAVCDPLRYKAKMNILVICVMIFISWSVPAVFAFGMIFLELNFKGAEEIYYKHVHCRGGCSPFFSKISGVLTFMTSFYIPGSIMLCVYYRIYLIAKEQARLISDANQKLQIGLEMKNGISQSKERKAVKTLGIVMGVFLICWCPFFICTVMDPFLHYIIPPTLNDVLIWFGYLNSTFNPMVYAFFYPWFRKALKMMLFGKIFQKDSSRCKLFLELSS

hTA1 = target: T2, hTA1 (Homo sapiens, UniProt Q96RJ0); experiment: GloSensor cAMP accumulation assay, concentration response, wild-type hTA1 in transfected HEK293T cells;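 note: luminescence read after 30 min compound exposure at room temperature in cells preloaded with D-Luciferin, reflecting Gs-driven cAMP rise, efficacy scaled to the maximal β-PEA response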
T2 construct: expressed in transfected cells; host or cells: HEK293T
T2 sequence (Q96RJ0 1-339): T1 sequence (Q96RJ0 1-339 V184P) with P184V

hTA1 C5S = target: T3, hTA1 C5S (Homo sapiens, UniProt Q96RJ0, C5S); experiment: GloSensor cAMP accumulation assay, C5S mutant; conditions: for C5S - Normalized Luminescence Counts (N=2): log[Compound], single wells
T3 construct: expressed in transfected cells; host or cells: HEK293T
T3 sequence (Q96RJ0 1-339 C5S): T1 sequence (Q96RJ0 1-339 V184P) with C5S, P184V

Q: How did the “cAMP accumulation response, single replicate values (source data, Supplementary Figure 5)” value (“cAMP accumulation response” for short) (hTA1 V184P; M = -9.522) turn out when `Cc1c(F)cccc1[C@H]1COC(N)=N1` [Ro5263397] was run?
A: 5.57 and 4.794 and 3.436 and 18.8157 and 20.0985 and 19.2188

Q: What about the “cAMP accumulation response” value (hTA1 V184P; M = -10) of the same compound?
A: -0.05538 and 0.9145 and 0.6235 and 8.626 and 10.7888 and 9.213

Q: What about the “cAMP accumulation response” value (hTA1 V184P; M = -10.522) of the same compound?
A: -0.8313 and -0.6373 and -1.025 and 2.3587 and 2.835 and 2.469

Q: What about the “cAMP accumulation response” value (hTA1 V184P; M = -11) of the same compound?
A: -0.6373 and -0.7343 and -1.316 and 1.442 and 2.102 and 1.039

Q: What about the “cAMP accumulation response” value (hTA1 V184P; M = -11.522) of the same compound?
A: -1.025 and -1.607 and -1.51 and 0.1962 and 0.9659 and -0.5735

Q: What about the “cAMP accumulation response” value (hTA1 V184P; M = -12) of the same compound?
A: -0.9283 and -1.122 and -1.4132 and 19.5854 and 20.7216 (2×)

Q: And the “cAMP accumulation response” value (hTA1 V184P; M = -12.522)?
A: -1.316 and -1.219 and -0.9283 and 4.704 and 5.621 and 6.281

Q: What about the “pEC50 values, Mean” value (hTA1 V184P; hTA1 V184P mutant, Figure 3B source data, each grid row a separate experiment, 3 replicates) of the same compound?
A: 8.393 and 9.05

Q: And the “Emax values, Mean” value (hTA1 V184P; hTA1 V184P mutant, β-PEA set to 100, each grid row a separate experiment, 3 replicates)?
A: 63.3156 and 71.6719

Q: What about the “pEC50 values, Avg” value (hTA1; WT hTA1, average of the two experiments, Figure 2B source data) of the same compound?
A: 8.831

Q: What about the “pEC50 values, Mean” value (hTA1; WT hTA1, each line an independent experiment, 3 replicates, Figure 2B source data) of the same compound?
A: 8.992 and 8.671

Q: And the “Emax values, Mean” value (hTA1; WT hTA1, β-PEA = 100, each line an independent experiment, 3 replicates)?
A: 87.687 and 85.7197

Q: And the “Emax values, Avg” value (hTA1; WT, average of the experiments, β-PEA = 100)?
A: 86.7

Q: And the “Emax values, Avg” value (hTA1; WT, average of the two experiments)?
A: 86.7

Q: What about the “Emax values, Mean” value (hTA1; WT, mean of each independent experiment (3 replicates), β-PEA = 100) of the same compound?
A: 87.687 and 85.7197

Q: What about the “Emax values, Mean” value (hTA1; WT, single experiments (3 replicates each), β-PEA = 100) of the same compound?
A: 87.687 and 85.7197

Q: What about the “pEC50 ± SEM” value (hTA1; wt hTA1, HEK293T, n=3) of the same compound?
A: 8.83 ± 0.09

Q: And the EC50 (hTA1; wt hTA1, HEK293T, n=3, read-out: EC50)?
A: 1.47 nM and 1.48 nM

Q: And the Emax (hTA1; wt hTA1, relative to β-PEA)?
A: 86.7%

Q: And the “Span ± SEM (Emax normalized to β-PEA)” value (hTA1 C5S; C5S, n=2)?
A: 85.5 ± 2.16

Q: What about the “pEC50 ± SEM” value (hTA1 C5S; C5S, n=2) of the same compound?
A: 8.41 ± 0.07

Q: What about the EC50 (hTA1 C5S; C5S, n=2, read-out: EC50) of the same compound?
A: 3.89 nM

Q: And the “ΔpEC50 values (each mutant value - WT average), Mean” value (hTA1 C5S; hTA1 C5S minus WT average)?
A: -0.4275 and -0.4158

Q: And the “pEC50 values, Mean” value (hTA1 C5S; hTA1 C5S, mean of 3 replicates, one line per independent experiment)?
A: 8.404 and 8.415

Q: What about the “Emax values, Mean” value (hTA1 C5S; hTA1 C5S, β-PEA = 100, mean of 3 replicates, one line per independent experiment) of the same compound?
A: 87.6591 and 83.3363

Q: What about the “C5S - Normalized Luminescence Counts (N=2)” value (hTA1 C5S; M = -5) of the same compound?
A: 85.0708 and 100.74 and 87.5995 and 113.126 and 96.6929 and 89.5813

Q: And the “C5S - Normalized Luminescence Counts (N=2)” value (hTA1 C5S; M = -5.522)?
A: 97.1276 and 85.703 and 92.1378 and 95.6573 and 94.8978 and 70.801

Q: What about the “C5S - Normalized Luminescence Counts (N=2)” value (hTA1 C5S; M = -6) of the same compound?
A: 93.0635 and 85.8836 and 79.9907 and 67.4868 and 91.9288 and 67.763

Q: What about the “C5S - Normalized Luminescence Counts (N=2)” value (hTA1 C5S; M = -6.522) of the same compound?
A: 88.5027 and 85.5675 and 89.6542 and 93.5169 and 82.6077 and 78.2579

Q: What about the “C5S - Normalized Luminescence Counts (N=2)” value (hTA1 C5S; M = -7) of the same compound?
A: 87.2609 and 83.7612 and 87.2157 and 111.607 and 73.6318 and 82.4696

Q: What about the “C5S - Normalized Luminescence Counts (N=2)” value (hTA1 C5S; M = -7.522) of the same compound?
A: 71.4335 and 67.6629 and 81.3002 and 85.1624 and 76.2555 and 81.6411

Q: What about the “C5S - Normalized Luminescence Counts (N=2)” value (hTA1 C5S; M = -8) of the same compound?
A: 61.928 and 52.9645 and 61.8152 and 50.2945 and 70.0415 and 59.7537

Q: And the “C5S - Normalized Luminescence Counts (N=2)” value (hTA1 C5S; M = -8.522)?
A: 48.2456 and 39.1466 and 43.2332 and 39.9378 and 36.8998 and 46.1518

Q: What about the “C5S - Normalized Luminescence Counts (N=2)” value (hTA1 C5S; M = -9) of the same compound?
A: 23.0031 and 19.2551 and 16.9296 and 21.986 and 33.2404 and 18.948

Q: What about the “C5S - Normalized Luminescence Counts (N=2)” value (hTA1 C5S; M = -9.522) of the same compound?
A: 10.2012 and 7.989 and 6.476 and 12.3887 and 12.803 and 8.1079
